Assay: Stability of ammoxetine in dog plasma (method validation)
Assay type: in vitro ADME
Procedure: LC-MS-MS methods were developed and validated to accurately quantify ammoxetine in rat and beagle dog plasma, as well as in rat tissues, urine, feces, and bile. The methods involved direct protein precipitation using methanol, providing a straightforward and rapid sample preparation process with high extraction recovery rates (absolute recoveries >85% in all matrices). […] The precision and accuracy of the plasma methods were evaluated through intra-day and inter-day analyses, yielding satisfactory results. Additionally, stability tests conducted in rat and beagle dog plasma met the analytical requirements for determination. Furthermore, the majority of the analytes met the necessary criteria for matrix effects when quantifying ammoxetine in biological samples. The developed methods are well-suited for determining ammoxetine concentrations in rat and beagle dog biological samples, enabling in vivo studies of this compound. They provide specific and highly sensitive quantification, facilitating investigations into the drug’s behavior in vivo. Detailed results regarding the establishment and validation of these analytical methods can be found in Supplementary Data Sheet 2.

Stability in dog plasma, Accuracy/% (5 ng/mL, 0d (-30℃)): 91.60±7.22% | Stability in dog plasma, Accuracy/% (5 ng/mL, 15d (-30℃)): 97.58±13.78% | Stability in dog plasma, Accuracy/% (5 ng/mL, 25d (-30℃)): 97.61±9.77% | Stability in dog plasma, Accuracy/% (5 ng/mL, in auto-sampler for 24h): 96.64±4.72% | Stability in dog plasma, Accuracy/% (5 ng/mL, repeated freezing and thawing for 3 times): 96.59±4.01% | Stability in dog plasma, Accuracy/% (5 ng/mL, room temperature for 4h): 99.00±11.24% | Stability in dog plasma, Accuracy/% (100 ng/mL, 0d (-30℃)): 100.10 ±1.62% | Stability in dog plasma, Accuracy/% (100 ng/mL, 15d (-30℃)): 98.63±4.19% | Stability in dog plasma, Accuracy/% (100 ng/mL, 25d (-30℃)): 101.68 ±6.57% | Stability in dog plasma, Accuracy/% (100 ng/mL, in auto-sampler for 24h): 99.51±7.50% | Stability in dog plasma, Accuracy/% (100 ng/mL, repeated freezing and thawing for 3 times): 98.25±6.55% | Stability in dog plasma, Accuracy/% (100 ng/mL, room temperature for 4h): 101.87 ±8.27% | Stability in dog plasma, Accuracy/% (1200 ng/mL, 0d (-30℃)): 92.06±3.06% | Stability in dog plasma, Accuracy/% (1200 ng/mL, 15d (-30℃)): 92.48±4.64% | Stability in dog plasma, Accuracy/% (1200 ng/mL, 25d (-30℃)): 93.96±3.46% | Stability in dog plasma, Accuracy/% (1200 ng/mL, in auto-sampler for 24h): 92.32±4.25% | Stability in dog plasma, Accuracy/% (1200 ng/mL, repeated freezing and thawing for 3 times): 92.01±6.32% | Stability in dog plasma, Accuracy/% (1200 ng/mL, room temperature for 4 h): 93.89±4.32%
SMILES: CNCC[C@H](Oc1cccc2c1OCO2)c1cccs1 [ammoxetine]
